Source: PubChem BioAssay (NCI)
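1) Cells in 96-well plates. 2) Compound, 48 h, 5 concentrations. 3) Linear interpolation between surrounding doses. 4) Unreached endpoint = highest concentration. The concentration for full growth arrest is given as TGI.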

Key:
Assay in all cases: NCI-60 cell line screen, 48 h
[1] = tested on: SNB-19 CNS
[2] = tested on: OVCAR-3 ovarian
[3] = tested on: MOLT-4 leukemia
[4] = tested on: HOP-92 NSCLC
[5] = tested on: 786-0 renal
[6] = tested on: SF-295 CNS
[7] = tested on: HOP-62 NSCLC
[8] = tested on: NCI-H460 lung
[9] = tested on: SF-268 CNS
[10] = tested on: M14 melanoma
[11] = tested on: SN12C renal
[12] = tested on: LOX IMVI melanoma
[13] = tested on: NCI-H23 lung
[14] = tested on: NCI-H226 lung
[15] = tested on: HT29 colon
[16] = tested on: TK-10 renal

Question: For `CC1(C)CN=CC(C)(OCc2ccccc2)C(=O)NC(C)(C)CN=CC(C)(OCc2ccccc2)C(=O)N1` (configuration not stated), which TGI [1] is on record?
Answer: > 10 µM

Question: What about the TGI [2] of the same compound?
Answer: > 10 µM

Question: What about the TGI [3] of the same compound?
Answer: > 10 µM

Question: And the TGI [4]?
Answer: 0.808 µM

Question: What about the TGI [5] of the same compound?
Answer: > 10 µM

Question: And the TGI [6]?
Answer: > 10 µM

Question: What about the TGI [7] of the same compound?
Answer: > 10 µM

Question: What about the TGI [8] of the same compound?
Answer: > 10 µM

Question: What about the TGI [9] of the same compound?
Answer: > 10 µM

Question: What about the TGI [10] of the same compound?
Answer: > 10 µM

Question: What about the TGI [11] of the same compound?
Answer: > 10 µM

Question: What about the TGI [12] of the same compound?
Answer: > 10 µM

Question: And the TGI [13]?
Answer: > 10 µM

Question: What about the TGI [14] of the same compound?
Answer: > 10 µM

Question: And the TGI [15]?
Answer: > 10 µM

Question: What about the TGI [16] of the same compound?
Answer: > 10 µM

Question: What does the source list for `CC(=O)c1ccc2c3c1O[C@H]1c4[nH]c5ccccc5c4C[C@@]4(O)[C@@H](C2)N(CC2CC2)CC[C@]314`?
Answer: TGI [1]: 20.8 µM; TGI [2]: 23.4 µM; TGI [3]: 47.6 µM; TGI [4]: 28.2 µM; TGI [5]: 28.3 µM; TGI [6]: 29 µM; TGI [7]: 36.5 µM; TGI [8]: 17.7 µM; TGI [9]: 28.8 µM; TGI [10]: 31.3 µM; TGI [11]: 34.4 µM; TGI [12]: 33 µM; TGI [13]: 48.1 µM; TGI [14]: 42.5 µM; TGI [15]: 20 µM; TGI [16]: 32.4 µM

Question: What does the source list for `CS(=O)(=O)OCC1CCCCCCCCCCC12SCCCS2` (configuration not stated)?
Answer: TGI [1]: > 100 µM; TGI [2]: > 100 µM; TGI [3]: > 100 µM; TGI [4]: > 100 µM; TGI [5]: > 100 µM; TGI [6]: > 100 µM; TGI [7]: > 100 µM; TGI [8]: > 100 µM; TGI [9]: > 100 µM; TGI [10]: > 100 µM; TGI [11]: > 100 µM; TGI [12]: > 100 µM; TGI [13]: > 100 µM; TGI [14]: > 100 µM; TGI [15]: > 100 µM; TGI [16]: > 100 µM

Question: Which results are given for `O=C1CCCCN1C(=O)c1ccc([N+](=O)[O-])cc1`?
Answer: TGI [1]: > 100 µM; TGI [2]: > 100 µM; TGI [3]: > 100 µM; TGI [4]: > 100 µM; TGI [5]: > 100 µM; TGI [6]: > 100 µM; TGI [7]: > 100 µM; TGI [8]: > 100 µM; TGI [9]: > 100 µM; TGI [10]: > 100 µM; TGI [11]: > 100 µM; TGI [12]: > 100 µM; TGI [13]: > 100 µM; TGI [14]: > 100 µM; TGI [15]: > 100 µM; TGI [16]: > 100 µM

Question: For `CN1C=COC1N=C1CCCCC1` (configuration not stated), which TGI [1] is on record?
Answer: 12 µM

Question: And the TGI [2]?
Answer: > 100 µM

Question: What about the TGI [3] of the same compound?
Answer: > 100 µM

Question: What about the TGI [4] of the same compound?
Answer: > 100 µM

Question: What about the TGI [5] of the same compound?
Answer: > 100 µM

Question: And the TGI [6]?
Answer: > 100 µM

Question: What about the TGI [7] of the same compound?
Answer: > 100 µM

Question: What about the TGI [8] of the same compound?
Answer: > 100 µM

Question: What about the TGI [9] of the same compound?
Answer: > 100 µM

Question: What about the TGI [10] of the same compound?
Answer: > 100 µM

Question: What about the TGI [11] of the same compound?
Answer: > 100 µM

Question: And the TGI [12]?
Answer: > 100 µM

Question: What about the TGI [13] of the same compound?
Answer: > 100 µM

Question: What about the TGI [14] of the same compound?
Answer: > 100 µM

Question: What about the TGI [15] of the same compound?
Answer: > 100 µM

Question: And the TGI [16]?
Answer: > 100 µM

Question: `CC1C(C#N)(C#N)C(C#N)=C(N)C1(C)[N+](=O)[O-]` (configuration not stated) was tested. Which TGI [1] did it give?
Answer: > 100 µM

Question: And the TGI [2]?
Answer: > 100 µM

Question: And the TGI [3]?
Answer: > 100 µM

Question: What about the TGI [4] of the same compound?
Answer: 8.96 µM

Question: And the TGI [5]?
Answer: > 100 µM

Question: What about the TGI [6] of the same compound?
Answer: > 100 µM

Question: And the TGI [7]?
Answer: > 100 µM

Question: What about the TGI [8] of the same compound?
Answer: > 100 µM

Question: And the TGI [9]?
Answer: > 100 µM

Question: What about the TGI [10] of the same compound?
Answer: > 100 µM

Question: What about the TGI [11] of the same compound?
Answer: > 100 µM

Question: And the TGI [12]?
Answer: > 100 µM

Question: What about the TGI [13] of the same compound?
Answer: > 100 µM

Question: And the TGI [14]?
Answer: > 100 µM

Question: What about the TGI [15] of the same compound?
Answer: > 100 µM

Question: And the TGI [16]?
Answer: > 100 µM

Question: How did the TGI [1] turn out when `O=c1c2cc(I)ccc2nc(SCc2nnco2)n1Cc1ccccc1` was run?
Answer: > 100 µM

Question: And the TGI [2]?
Answer: > 100 µM

Question: What about the TGI [3] of the same compound?
Answer: 47.4 µM

Question: What about the TGI [4] of the same compound?
Answer: > 100 µM

Question: And the TGI [5]?
Answer: > 100 µM

Question: What about the TGI [6] of the same compound?
Answer: > 100 µM

Question: What about the TGI [7] of the same compound?
Answer: > 100 µM

Question: And the TGI [8]?
Answer: > 100 µM

Question: And the TGI [9]?
Answer: > 100 µM

Question: And the TGI [10]?
Answer: > 100 µM

Question: What about the TGI [11] of the same compound?
Answer: > 100 µM

Question: What about the TGI [12] of the same compound?
Answer: > 100 µM

Question: What about the TGI [13] of the same compound?
Answer: > 100 µM

Question: And the TGI [14]?
Answer: > 100 µM

Question: And the TGI [15]?
Answer: > 100 µM

Question: And the TGI [16]?
Answer: > 100 µM
